Results on one compound are retold here after patent US20240309014A1, “MACROCYCLIC COMPOUNDS AND USES THEREOF” (President and Fellows of Harvard College, priority 2017, published 2024).

Structures are written as SMILES.

Assay [1] concerns BJ normal human fibroblasts stimulated with TGF-β. The assay is described as follows: TGF-β-treated BJ cells, in vitro CAF-inducing system. Type of assay: cell-based. As to the method:
FIG. 19A. BJ cells (normal human […] fibroblasts) were co-cultured with FaDu cells for three days in the absence (vehicle) or presence of A83-01, a potent selective TGF-β-R inhibitor, and the expression of α-SMA was analysed by immunofluorescence staining (red color). Samples were also stained with anti-pan-human cytokeratin (green color) for cancer cell staining and DAPI (blue color) for nuclear staining. FIGS. 19B-19E BJ cells were treated with Compound (1) (0.15 nmol/L in immunofluorescence staining data and indicated concentrations in western blot analysis data) and TGF-β for 2 days. FIGS. 19B-19E. Samples were stained with the indicated antibody (red color) and DAPI (blue color) for nuclear staining. FIG. 19E Western blot images and quantification of the images. […] FIGS. 19G and 19E BJ cells were pretreated with defactinib (1 μmol/L) and TGF-β for 2 days. The lens magnification used was x4 (FIGS. 19A, 19B, 19C, 19G, and 19H) or x40 (FIGS. 19D and 19E).
FIGS. 20A and 20B. Quantification of immunofluorescence images of BJ cells treated with TGF-β(1 ng/mL) and the indicated concentrations of Compound (1) for α-SMA (FIG. 20A), Phospho-S6-ribosomal protein (Ser235/236) (FIG. 20B). FIG. 20C. Immunofluorescence analysis of BJ cells treated with TGF-β in the absence or presence of dactolisib, a phosphatidylinositol 3 kinase inhibitor. FIG. 20D. Immunofluorescence analysis of phosphorylated Smad⅔ in BJ cells pretreated with Compound (1) (72 hours) after 30 minutes of stimulation with TGF-β. Acetylated-α-tubulin was co-stained to confirm the activity of Compound (1). FIG. 20E. Western blot analysis of Smad⅔ in BJ cells treated with TGF-β and the indicated concentrations of Compound (1). The lens magnification used was x4 (FIG. 20C) or x40 (FIG. 20D).
The expression of α-SMA was induced in BJ normal human fibroblasts upon co-cultivation with FaDu cells, and the expression was attenuated by treatment with A83-01, a potent selective inhibitor of the TGF-β-receptor (FIG. 19A).
Under the same experimental conditions, the enhanced formation of focal adhesions, which were detected as punctate structures with an antibody against phosphorylated FAK at tyrosine-397, after stimulation with TGF-β was decreased in BJ cells by treatment with Compound (1) (FIG. 19E). Many signalling complexes are assembled in focal adhesion sites, and those complexes dispatch several downstream signals, including those involved in the PI3K/AKT/mTOR pathway. See, e.g., Sulzmaier et. al. “FAK in cancer: mechanistic findings and clinical applications”, Nature Reviews Cancer 2014, 14, 598-610.

Assay [2] relates to FaDu subcutaneous xenograft. The assay is described as follows: FaDu subcutaneous xenograft in combination with cetuximab, single dose (FIG. 16). Type of assay: in vivo, athymic mice. Conditions: single dose Day 1. As for the experimental part:
A human squamous cell carcinoma of the head and neck (SCCHN) cell line FaDu, which had been cultured in an RPMI-1640 medium containing 10% FBS, and penicillin-streptomycin, was adjusted to a concentration of 5×10^7 cells/mL with Hanks' Balanced Salt Solution to prepare a cell suspension. The cell suspension was inoculated in a volume of 100 μL into a subcutaneous part of a right flank of athymic mice (CAnN.Cg-Foxnlnu/CrlCrlj, female, 7 weeks old, Charles River Japan Inc.). Ten days after cell inoculation (Day 1), the length and the width of a tumor in each mouse were measured by using an electronic digital caliper (Mitutoyo Corporation), so as to calculate the volume of the tumor in accordance with the following calculation formula: […]
On the basis of TV, the mice were randomly grouped (Day 1). Each group was consisted in six mice. Compound (1) was dissolved in DMSO and a solution was stored in the freezer before use.

Assay [3] relates to FaDu-Luc subcutaneous xenograft. The experiment in a line: FaDu s.c. xenograft model in combination with radiation. The class given is in vivo, nude mice. As for the experimental part: Luciferase-transduced FaDu-Luc cells were established by retrovirus-mediated gene transfer. […]. Then, helper-free recombinant retroviruses were produced by transfecting the above retroviral expression vector together with pGP and pE-Ampho plasmids (Takara Bio; Shiga, Japan), into 293T cells (ATCC; Manassas, USA). Next, FaDu cells were infected with the recombinant retroviruses, and were cultured for two weeks in the presence of puromycin (2 μg/mL). The infected cells were selected from a polyclonal proliferative population of the culture.
A luciferase-transduced human SCCHN cell line FaDu-Luc, which had been cultured in an RPMI-1640 medium containing 10% FBS, and penicillin and streptomycin, was adjusted to a concentration of 5×10^7 cells/mL with Hank's Balanced Salt Solution to prepare a cell suspension. […] Thirteen days after the cell inoculation, the tumor volume was analyzed using bioluminescence signal from FaDu-Luc cells. […] The bioluminescence signal was monitored using the IVIS […] series (PerkinElmer, Waltham, MA), consisting of a highly sensitive, cooled chargecoupled device camera. […] Data were analyzed using total photon flux emission (photons/second) in the ROIs. The total photon flux emission was calculated in accordance with the following calculation formulae: […]

As for `C=C1C[C@@H]2CC[C@@]34C[C@H]5O[C@H]6[C@@H](O3)[C@H]3O[C@H](CC[C@@H]3O[C@H]6C5O4)CC(=O)O[C@@H]3[C@@H](C)[C@@H]4O[C@@H]5C[C@]6(C[C@@H]7O[C@]8(C[C@H](C)[C@@H]9O[C@H](CN)[C@H](O)C[C@@H]9O8)C[C@H](C)[C@@H]7O6)O[C@@H]5C[C@@H]4O[C@H]3C[C@H]3O[C@@H](CC[C@@H]1O2)C[C@@H](C)C3=C` (stereo in doubt) [Compound (1)], the “TGF-β-induced phosphorylation and nuclear localization of Smad⅔” value in assay [1] (BJ cells) is “did not significantly change”. Also, the “enhanced formation of focal adhesions (phosphorylated FAK at tyrosine-397)” value in assay [1] (BJ cells after stimulation with TGF-β) was “decreased”. In addition, the “activation of the PI3K/AKT/mTOR pathway” value in assay [1] (BJ cells treated with TGF-β) is on record as “reduce the activation of the PI3K/AKT/mTOR pathway”. Further, the “TGF-β-enhanced P3-tubulin expression and microtubule network formation” value in assay [1] (BJ cells, co-treatment with TGF-β) is recorded as “diminished”. Also, in assay [1] (BJ cells, immunofluorescence, 2 days), the “α-SMA induction by TGF-β” value is “interfered with α-SMA induction by TGF-β in BJ cells without growth inhibitory activity”. Also, the “antitumor efficacy with CTX” value in assay [2] (20 μg/kg + cetuximab 10 mg/kg) is recorded as “tended to be stronger than that of CTX monotherapy”; in assay [2] (180 μg/kg and 60 μg/kg + cetuximab 10 mg/kg), “stronger than that of CTX monotherapy with tumor regression”. Besides, the “Tumor Regression (%)” value is recorded as 97% in assay [3] (0.09 mg/kg i.v. day 1 and 8 + radiation 18 Gy day 4 and 11); 0% in assay [3] (0.09 mg/kg i.v. day 1 and 8, without radiation).
